Test results: US20230020329A1, “Annelated 9-hydroxy-1,8-dioxo-1,3,4,8-tetrahydro-2H-pyrido[1,2-a]pyrazine-7-carboxamides as HIV integrase inhibitors, methods of preparation and application thereof” (priority 2019, published 2023)
≈ marks a conversion by molar mass, not a printed value. Like-named read-outs stand apart in the source and are kept apart here.

How the values were obtained:
HIV-1 (IIIB strain) = assay: Anti-HIV cytoprotection assay (XTT), HIV-1 IIIB in CEM-SS cells; assay type: cell-based; details: CEM-SS cell line, read-out: Inhibitory activity (EC50) against HIV-1 (IIIB strain)
Method in brief: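 CEM-SS cells infected with a pre-titrated virus dose killing 85–95% of cells by day 6; protection from HIV-induced death read by XTT formazan. Compounds screened in triplicate at 30 and 10 nM, actives retested at 2 nM; AZT six-concentration curve on each plate as positive control.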

[1] = Thermodynamic (shake-flask) solubility; assay type: physicochemical; details: for solubility at 24 h: thermodynamic from solid
Method: The test compound of general formula 1 or 2 (2 mg) was weighed into a glass vial. The pION universal buffer (0.5 ml) with pH 7.4 or deionized water was added to appropriate vials. The vials were tightly closed with a lid, placed on a rotating shaker, and incubated for 24 hours to balance the solution and the solid phase at the saturation point. Each resulting solution (200 μl) was taken (in duplicate) from the vials, placed in a 96-well MultiScreen Solubility Filter Plate (Millipore), and filtered using vacuum ([…]) into a polypropylene plate with a U-shaped bottom. If necessary, the filtrates were diluted with an appropriate buffer (water). Then, 120 μl of the filtarate (or a diluted filtrate) was transferred to a 96-well plate with a UV-transparent bottom and 60 μl/well of acetonitrile and 20 μl/well of DMSO were added and thoroughly mixed with a multichannel pipette (acetonitrile and DMSO were added to obtain a required composition of calibration standards, as described below). The optical density of the resulting solutions was measured on a multifunction Infinite 200 PRO plate reader in the wavelength range from 240 nm to 400 nm in steps of 10 nm. The value of ODλ for solutions was assessed at a wavelength chosen for plotting a calibration curve.
The concentration of a substance in the solution after the solubility test was evaluated using a calibration curve. A stock solution in DMSO with a concentration of 2 mg/ml was prepared from a separate sample. […] The range of final concentrations of the calibration curve was 0.2; 0.1; 0.05; 0.025; 0.0125; 0.00625, and 0 mg/ml. Calibration solutions were prepared in a 96-well UV plate as follows: 20 μl of a 10-fold stock solution in DMSO, 60 μl of acetonitrile, and 120 μl of the appropriate buffer were added to the well and stirred. The optical density of the resulting solutions was measured on a multifunction Infinite 200 PRO plate reader in the wavelength range from 240 nm to 400 nm with a step of 10 nm. The optimal wavelength typically corresponding to the absorption maximum was chosen, and a linear dependence of OD at a given wavelength on the concentration of the compound was obtained.
The concentration of the compound in the filtrate after the solubility test was calculated according to the formula:
shake-flask solubility=(ODλfiltrate−ODλblank)/(slope×1.67×filtrate dilution)
wherein slope means the slope of the calibration curve; 1.67 is the filtrate acetonitrile+DMSO dilution ratio; filtrate dilution is an additional dilution of the filtrate, if applicable.

[2] = system: HIV-1 (NL4.3 strain) carrying the GFP reporter gene (NL4.3-GFP); assay: HIV-1 NL4.3-GFP infection of SupT1 cells; assay type: cell-based; details: Human immunodeficiency virus 1, SUP-T1, read-out: Inhibitory activity (EC50) of HIV-1 (NL4.3 strain) carrying the GFP reporter gene
Method: 6. Inhibitory Activity of HIV-1 (NL4.3 Strain) Carrying the GFP Reporter Gene (NL4.3-GFP) in the SuPT1 Cell Line.
The evaluation was done by RetroVirox Inc. (San Diego, Calif., USA). SupT1 cells were infected with the HIV NL4.3 strain carrying the green fluorescent protein gene (NL4.3-GFP). The virus sample was produced by transfection of 293T cells with proviral DNA. The sample was frozen 48 hours after transfection and stored until use. To enhance the efficiency of infection, a suspension of SupT1 cells was precipitated from the infectious mixture by centrifugation. Test substances were added to the cells immediately before adding the virus. After 2 hours of incubation, the infectious mixture was replaced with a fresh culture medium containing test samples. The effectiveness of the infection was determined after 45 hours by counting the percentage of fluorescent cells in comparison with uninfected cell cultures. The cytotoxicity of the test compounds was determined in parallel on the same, but not infected, SupT1 cell line using the XTT reagent. Serial tenfold dilutions of the samples (starting from 10 μM when determining antiviral activity or from 100 μM for determining cytotoxicity). As a negative control, 0.1% DMSO was used. The values of EC50 were calculated. The quality of the tests was determined using the following controls: signal-to-noise ratio, integrase inhibitor raltegravir (1 μM), and test reproducibility.

HIV = details: depending on the method of analysis; read-out: Inhibitory activity EC50 (literature); cited from earlier work
[3] = Human immunodeficiency virus 1, IIIB, CEM-SS
[4] = aqueous buffer, pION universal buffer pH 7.4, 24 h, read-out: Solubility, pH 7.4, value
[5] = deionized water, 24 h, read-out: Solubility, water, value
[6] = deionized water, water, read-out: Solubility in water

Compound | EC50 (HIV-1 (IIIB strain); [3]) [nM] | solubility at 24 h [1, 4] [µg/mL] | solubility at 24 h [1, 5] [µg/mL] | EC50 [2] [nM] | Solubility, water, value ([1]; deionized water, 24 h) [µg/mL] | solubility at 24 h [1, 6] [µg/mL] | EC50 (HIV-1 (IIIB strain)) [nM] | EC50 (HIV) [nM]
C[C@H]1CO[C@@H]2Cn3cc(C(=O)NCc4c(F)cncc4F)c(=O)c(O)c3C(=O)N12 [Compound 1.1.24, (3S,11aR)-6-hydroxy-N-[(3,5-difluoropyridin-4-yl)methyl]-3-methyl-5,7-dioxo-2,3,5,7,11,11a-hexahydro[1,3]oxazolo[3,2-a]pyrido[1,2-d]pyrazine-8-carboxamide] | 2.63 | 380 (≈ 935 µM) | 347 (≈ 854 µM) |  |  |  |  | 
C[C@H]1CO[C@@H]2Cn3cc(C(=O)NCc4ncccc4F)c(=O)c(O)c3C(=O)N12 [Compound 1.1.16, (3S,11aR)-6-hydroxy-3-methyl-N-[(3-fluoropyridin-2-yl)methyl]-5,7-dioxo-2,3,5,7,11,11a-hexahydro[1,3]oxazolo[3,2-a]pyrido[1,2-d]pyrazine-8-carboxamide] | 10 to 30 |  |  | 10.5 |  |  |  | 
C[C@H]1CO[C@@H]2Cn3cc(C(=O)NCc4ccc5nonc5c4)c(=O)c(O)c3C(=O)N12 [Compound 1.1.48, (3S,11aR)-N-(2,1,3-benzoxadiazol-5-ylmethyl)-6-hydroxy-3-methyl-5,7-dioxo-2,3,5,7,11,11a-hexahydro[1,3]oxazolo[3,2-a]pyrido[1,2-d]pyrazine-8-carboxamide] | 0.43 | 3.2 (≈ 7.78 µM) |  |  | 2.85 (≈ 6.93 µM) | 2.85 (≈ 6.93 µM) |  | 
C[C@H]1CO[C@@H]2Cn3cc(C(=O)NCc4ccc(F)nc4F)c(=O)c([O-])c3C(=O)N12.[Na+] [Compound 1.1.20, Sodium (3S,11aR)-8-({[(2,6-difluoropyridin-3-yl)methyl]amino}carbonyl)-3-methyl-5,7-dioxo-2,3,5,7,11,11a-hexahydro[1,3]oxazolo[3,2-a]pyrido[1,2-d]pyrazin-6-olate] |  | 1680 |  |  | 2679 | 2680 | 4.8 | 
C[C@H]1CO[C@@H]2Cn3cc(C(=O)NCc4nccc5ccccc45)c(=O)c(O)c3C(=O)N12 [Compound 1.1.55, (3S,11aR)-6-hydroxy-N-(isoquinolin-1-ylmethyl)-3-methyl-5,7-dioxo-2,3,5,7,11,11a-hexahydro[1,3]oxazolo[3,2-a]pyrido[1,2-d]pyrazine-8-carboxamide] | 2 to 10 |  |  | 14.5 |  |  |  | 
C[C@@H]1CCO[C@H]2Cn3cc(C(=O)NCc4ccc(F)cc4F)c(=O)c(O)c3C(=O)N12 [DTG, Dolutegravir] |  |  |  |  |  |  |  | 1.1 to 7.4
Cc1cc2c(cc1CNC(=O)c1cn3c(c(O)c1=O)C(=O)N1[C@@H](C)CO[C@@H]1C3)OCCO2 [Compound 1.1.36, (3S,11aR)-6-hydroxy-3-methyl-N-[(7-methyl-2,3-dihydro-1,4-benzodioxin-6-yl)methyl]-5,7-dioxo-2,3,5,7,11,11a-hexahydro[1,3]oxazolo[3,2-a]pyrido[1,2-d]pyrazine-8-carboxamide] | 10 to 30 | 70 (≈ 159 µM) | 56 (≈ 127 µM) |  |  |  |  | 
C[C@H]1CO[C@@H]2Cn3cc(C(=O)NCc4nn(C)c(Cl)c4Cl)c(=O)c(O)c3C(=O)N12 [Compound 1.1.7, (3S,11aR)-6-hydroxy-N-[(4,5-dichloro-1-methyl-1H-pyrazol-3-yl)methyl]3-methyl-5,7-dioxo-2,3,5,7,11,11a-hexahydro[1,3]oxazolo[3,2-a]pyrido[1,2-d]pyrazine-8-carboxamide] | 0.59 | 318 (≈ 719 µM) | 318 (≈ 719 µM) |  |  |  |  | 

Now from value to compound, other results behind:

EC50 (HIV-1 (IIIB strain); [3]) [nM] | solubility at 24 h [1, 4] [µg/mL] | solubility at 24 h [1, 5] [µg/mL] | Compound | EC50 [2] [nM] | Solubility, water, value ([1]; deionized water, 24 h) [µg/mL] | solubility at 24 h [1, 6] [µg/mL] | EC50 (HIV-1 (IIIB strain)) [nM] | EC50 (HIV) [nM]
2 to 10 | 8 (≈ 18.4 µM) | 31 (≈ 71.4 µM) | Cc1cc(CNC(=O)c2cn3c(c(O)c2=O)C(=O)N2[C@@H](C)CO[C@@H]2C3)c2ccccc2n1 [Compound 1.1.51, (3S,11aR)-6-hydroxy-3-methyl-N-(2-methylquinolin-4-ylmethyl)-5,7-dioxo-2,3,5,7,11,11a-hexahydro[1,3]oxazolo[3,2-a]pyrido[1,2-d]pyrazine-8-carboxamide] |  |  |  |  | 
1.44 | 24 (≈ 63.9 µM) | 33 (≈ 87.9 µM) | C[C@H]1CO[C@@H]2Cn3cc(C(=O)NCc4cccs4)c(=O)c(O)c3C(=O)N12 [Compound 1.1.1, (3S,11aR)-6-hydroxy-3-methyl-5,7-dioxo-N-(2-thienylmethyl)-2,3,5,7,11,11a-hexahydro[1,3]oxazolo[3,2-a]pyrido[1,2-d]pyrazine-8-carboxamide] |  |  |  |  | 
10 to 30 | 91 (≈ 234 µM) | 78 (≈ 201 µM) | C[C@H]1CO[C@@H]2Cn3cc(C(=O)NCc4ccncc4F)c(=O)c(O)c3C(=O)N12 [Compound 1.1.23, (3S,11aR)-6-hydroxy-3-methyl-N-[(3-fluoropyridin-4-yl)methyl]-5,7-dioxo-2,3,5,7,11,11a-hexahydro[1,3]oxazolo[3,2-a]pyrido[1,2-d]pyrazine-8-carboxamide] |  |  |  |  | 
2.17 | 6 (≈ 14.3 µM) | 10 (≈ 23.8 µM) | C[C@H]1CO[C@@H]2Cn3cc(C(=O)NCc4cccc5cccnc45)c(=O)c(O)c3C(=O)N12 [Compound 1.1.54, (3S,11aR)-6-hydroxy-3-methyl-N-(quinolin-8-ylmethyl)-5,7-dioxo-2,3,5,7,11,11a-hexahydro[1,3]oxazolo[3,2-a]pyrido[1,2-d]pyrazine-8-carboxamide] |  |  |  |  | 
1.93 | 21 (≈ 49.2 µM) | 21 (≈ 49.2 µM) | C[C@H]1CO[C@@H]2Cn3cc(C(=O)NCc4nc5ccccc5s4)c(=O)c(O)c3C(=O)N12 [Compound 1.1.37, (3S,11aR)-N-(1,3-benzothiazol-2-ylmethyl)-6-hydroxy-3-methyl-5,7-dioxo-2,3,5,7,11,11a-hexahydro[1,3]oxazolo[3,2-a]pyrido[1,2-d]pyrazine-8-carboxamide] |  |  |  |  | 
5.15 | 80 (≈ 190 µM) | 57 (≈ 136 µM) | C[C@@H]1CCO[C@H]2Cn3cc(C(=O)NCc4ccc(F)nc4F)c(=O)c(O)c3C(=O)N12 [Compound 1.2.1, (4R,12aS)-7-hydroxy-N-[(2,6-difluoropyridin-3-yl)methyl]-4-methyl-6,8-dioxo-3,4,6,8,12,12a-hexahydro-2H-pyrido[1′,2′:4,5]pyrazino[2,1-b][1,3]oxazine-9-carboxamide] |  |  |  |  | 
